Data as given in patent publication US8178506B2, “Oligomeric compounds and compositions for use in modulation of small non-coding RNAs” (Regulus Therapeutics Inc., priority 2003, dated 2012).
In the oligonucleotide strings, read from the 5' end, every base follows the letter of its sugar. An asterisk marks phosphorothioate; unmarked linkages are phosphodiester. Other units and linkages are bracketed, terminal groups are in braces. A string of capitals states the bases alone. e = 2'-O-(2-methoxyethyl) (MOE); [5mC] = 5-methylcytosine; d = 2'-deoxy (DNA)

Tested on: T47D cells
Test: Cell cycle assay in T47D cells
Assay type: cell-based, human
Settings: 150 nM, 48 hours, relative to untreated control

Q: Which “% cells in cell cycle phase G1” value does the source give for “328403 (antisense eA*eG*eG*e[5mC]*e[5mC]*dT*dA*dT*dT*d[5mC]*d[5mC]*dT*dG*dT*dA*eG*e[5mC]*eA*eA*eA) [compound 328403]” here?
A: Its value is 104%.

Q: And the “% cells in cell cycle phase G2/M” value?
A: Its value is 89%.

Q: What about the “% cells in cell cycle phase S” value of the same substance?
A: The value was 112%.

Q: And the “% cells in cell cycle phase aneuploid” value?
A: Its value is 175%.

Q: And the “% cells in cell cycle phase subG1” value?
A: The value was 49%.
